The supplement of paper PMC10307832

Experiments:
Test in all cases: relative viability (nuclei count vs DMSO), 5 days (fraction); higher = more cells survive
RO-3306 + Phenformin = compound: C1=CC2=C(C=CC(=C2)C=C3C(=O)NC(=NCC4=CC=CS4)S3)N=C1 [RO-3306] + N=C(N)NC(=N)NCCc1ccccc1 [Phenformin] (partner 250 µM)
Outline: (§1)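 Relative viability is defined as nuclei in treated wells over nuclei in vehicle wells. Duplicate plates were run and medians reported. Lung cancer cell lines in 1536-well plates were dosed by pin tool one day after seeding, with one drug or with a fixed anchor-drug dose plus five library-drug doses (not always all listed) in √10 steps, and nuclei were counted after 5 days.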

RO-3306 + Tozasertib = compound: C1=CC2=C(C=CC(=C2)C=C3C(=O)NC(=NCC4=CC=CS4)S3)N=C1 [RO-3306] + Cc1cc(Nc2cc(N3CCN(C)CC3)nc(Sc3ccc(NC(=O)C4CC4)cc3)n2)n[nH]1 [Tozasertib] (partner 0.1 µM)
Outline: as §1

[1] = compound: O=S(=O)(c1ccccc1)N(CC(F)(F)F)c1ccc(C(O)(C(F)(F)F)C(F)(F)F)cc1 + Nc1ncn([C@H]2C[C@H](O)[C@@H](CO)O2)c(=O)n1 [Decitabine] (partner 2 µM)
Outline: as §1

RO-3306 + Crizotinib = compound: C1=CC2=C(C=CC(=C2)C=C3C(=O)NC(=NCC4=CC=CS4)S3)N=C1 [RO-3306] + C[C@@H](Oc1cc(-c2cnn(C3CCNCC3)c2)cnc1N)c1c(Cl)ccc(F)c1Cl [Crizotinib] (partner 1 µM)
Outline: as §1

Cell Line UMC-11 has a relative viability (RO-3306 + Phenformin; first compound 0.01 µM) of 0.351, a relative viability (RO-3306 + Phenformin; first compound 0.03162 µM) of 0.291 and a relative viability (RO-3306 + Phenformin; first compound 0.1 µM) of 0.3. It also gave a relative viability (RO-3306 + Phenformin; first compound 0.3162 µM) of 0.366, a relative viability (RO-3306 + Phenformin; first compound 1 µM) of 0.315 and a relative viability (RO-3306 + Tozasertib; first compound 0.01 µM) of 0.174. It also gave a relative viability (RO-3306 + Tozasertib; first compound 0.03162 µM) of 0.225, a relative viability (RO-3306 + Tozasertib; first compound 0.1 µM) of 0.199 and a relative viability (RO-3306 + Tozasertib; first compound 0.3162 µM) of 0.213. For the same cell line, the relative viability (RO-3306 + Tozasertib; first compound 1 µM) was 0.194, the relative viability ([1]; first compound 0.8 µM) was 0.587 and the relative viability ([1]; first compound 2.53 µM) was 0.471. The relative viability ([1]; first compound 8 µM) was 0.681, the relative viability (RO-3306 + Crizotinib; first compound 0.01 µM) was 0.49 and the relative viability (RO-3306 + Crizotinib; first compound 0.03162 µM) was 0.555. It also gave a relative viability (RO-3306 + Crizotinib; first compound 0.1 µM) of 0.62, a relative viability (RO-3306 + Crizotinib; first compound 0.3162 µM) of 0.906 and a relative viability (RO-3306 + Crizotinib; first compound 1 µM) of 0.48.
